From US12589101B2, “Cyclodextrin protein drug conjugates” (Regeneron Pharmaceuticals, Inc., priority 2017, dated 2026) come the findings set out here.

Converted amounts (≈) assume the structure as drawn. Like-named read-outs stand apart in the source and are kept apart here.

The target of series [1] is Cathepsin B (Homo sapiens, UniProt P07858). In words: Cathepsin B cleavage rate of linker-payloads (Example 66). The note with it: Cathepsin B cleavage rate; for CapB (%): pH 5.0, 37° C.; for capB: Table 8A. In kind it is biochemical. The procedure:
Step 1: Preparation of Cathepsin B buffer: 0.1 M NaOAc/0.01M DTT (pH5.0) Dissolve 8.3 g/L NaOAc, 1.54 g/L DTT in deionized water. Adjust pH to 5.0 with HCl/sodium hydroxide.
Step 2: Test Cleavage Rate
• 1. Prepare 25 μM of testing sample: To a 2-mL-tube was added 0.5 mg of testing sample, followed by the addition of 0.2 mL of DMSO. The solution was added dropwise into 0.8 mL of 0.1 M NaOAc/0.01 M DTT buffer. The obtained mixtures were sonicated for 5 minutes to obtain clear and colorless solutions. The pH value of the solution was around 5 according to pH test strip. • 2. Preheat assay buffer: 0.1 M NaOAc/0.01 M DTT (pH 5.0) • 3. Spiking solutions for test compounds: 25 μM Spiking solutions for test compounds: Add 2 μL of 5 mM stock solution into 398 μL of 0.1 M NaOAc/0.01 M DTT buffer (pH 5.0). • 4. Prepare 0.47 μg/μL Cathepsin B in 50 mM NaOAc/1 mM EDTA (pH 5.0). Put on ice. • 5. Without CA074 samples: Add 4 μL of 0.47 μg/μL Cathepsin B into 196 μL of 25 μM Spiking solutions (from step 2), incubate the tubes at 37° C. • 6. With CA074 samples: Add 4 μL of 0.47 μg/μL Cathepsin B with 4 μL of 10 mM Inhibitor (CA074) into 196 μL of 25 μM Spiking solutions (from step 2), incubate the tubes. • 7. After quenching, shake the plate and centrifuge them at 14000 rpm. • 8. Transfer 50 μL of the supernatant from each well into a 96-well sample plate containing 50 μL of ultra pure water (Millipore, ZMQS50F01) for LC/MS analysis. Step 3: Test reference compounds: • 9. Preheat assay buffer: 100 mM Na/K phosphate, pH 6.0, with 1.33 mM EDTA and 2 mM DTT. • 10. Prepare 0.024 μg/μL Cathepsin B: Add 1 μL of 0.47 μg/μL Cathepsin B stock into 19 μL of assay buffer (from step 11). • 11. Add 2 μL of 0.024 μg/μL Cathepsin B (from step 12) to a opaque 96-well plate. • 12. Add 96 μL of assay buffer to each sample. • 13. Add 2 μL of the 10 mM substrate Z-RR-MNA (200 μM final concentration). • 14. For negative control (With inhibitor), add 2 μL of 10 mM Inhibitor (CA074): Immediately read the samples in a kinetic mode at excitation of 340 nm/emission of 425 nm (Read the plate every 30 Second for 3 min). Step 4: Stability of Cathepsin B in incubation samples: • 15. Take 5 μL of incubation samples into 93 μL of assay buffer (from step 11), and then add 2 μL of 10 mM substrate (Z-RR-MNA). • 16. Incubate the samples at 37° C. for 2 min. • 17. Read the samples at excitation of 340 nm/emission of 425 nm.

The nature of series [2]: Solubility of linker-payloads (LC-MS standard curve, saturated solution). In kind it is physicochemical. The note with it: water, thermodynamic from solid. The protocol:
The following test assays the solubility of the linker-payloads with a cyclodextrin moiety and the linker-payloads without a cyclodextrin moiety.
The test compounds were dissolved in DMSO to build a standard curve using LC-MS method A or B. The test sample was dissolved in water and sonicated for 10 minutes, and then centrifuged. The upper clear solution was analyzed using the same method A or B and the solubility was calculated based on its peak area.
Detailed test procedures were as follows: • 1. […] 0.05 mg of compound was suspended in water (1 mL) and sonicated for 10 minutes. After centrifugation, the clear solution above was collected to provide the saturated sample solution. • 3. All the standard solutions A, B, C, D, E and sample solution were analyzed by LCMS (using the same method and same injection volume) to obtain the peak areas. • 4. Calculate the standard curve according to the data of A-D (X=concentration, Y=peak areas). • 5. Calculate to obtain the concentration of saturated sample solution according to the functions obtained above.

Turning to `CC[C@H](C)[C@@H]([C@@H](CC(=O)N1CCC[C@H]1[C@H](OC)[C@@H](C)C(=O)N[C@H](C)[C@@H](O)c1ccccc1)OC)N(C)C(=O)[C@@H](NC(=O)[C@H](C(C)C)N(C)C(=O)OCc1ccc(NC(=O)[C@H](CCCNC(N)=O)NC(=O)[C@@H](NC(=O)[C@@H](CCCCNC(=O)CCOCCOCCOCCOCCNC(=O)COC2CCCCCc3c2nnn3CC2OC3OC4C(CO)OC(OC5C(CO)OC(OC6C(CO)OC(OC7C(CO)OC(OC8C(CO)OC(OC2C(O)C3O)C(O)C8O)C(O)C7O)C(O)C6O)C(O)C5O)C(O)C4O)NC(=O)CCOCCOCCOCCOCCNC(=O)OC[C@@H]2[C@@H]3CCC#CCC[C@@H]32)C(C)C)cc1)C(C)C` (stereo partly drawn) [Ex44], the “CapB (%)” value in series [1] was “% (50< % ≤60 CapB (%))”.

As to `CC(C)[C@H](NC(=O)[C@@H](CCCCNC(=O)COC1CCCCCc2c1nnn2CC1OC2OC3C(CO)OC(OC4C(CO)OC(OC5C(CO)OC(OC6C(CO)OC(OC7C(CO)OC(OC1C(O)C2O)C(O)C7O)C(O)C6O)C(O)C5O)C(O)C4O)C(O)C3O)NC(=O)CCOCCOCCOCCOCCNC(=O)CCC(=O)N1Cc2ccccc2C#Cc2ccccc21)C(=O)N[C@@H](CCCNC(N)=O)C(=O)Nc1ccc(COC(=O)N[C@@H](CO)C(=O)Nc2ccc3c(c2)[C@@]2(C)CCC[C@](C)(C(=O)NC(=O)[C@@]4(C)CCC[C@]5(C)c6cc(O)ccc6CC[C@@H]45)[C@@H]2CC3)cc1` (stereo partly drawn) [Ex56, DIBAC-suc-PEG4-D-Lys(COT-CD)-vcPAB-1g], the solubility at 10 min in series [2] (Aq. Solubility (mg/mL)) and in series [2] (Solubility) was < 100 µg/mL in each case. For `CCCC1O[C@@H]2C[C@H]3[C@@H]4C[C@H](F)C5=CC(=O)C=C[C@]5(C)[C@@]4(F)[C@@H](O)C[C@]3(C)[C@]2(C(=O)COc2ccc(NC(=O)[C@H](C)NC(=O)[C@@H](NC(=O)[C@@H](CCCCNC(=O)COC3CCCCCc4c3nnn4CC3OC4OC5C(CO)OC(OC6C(CO)OC(OC7C(CO)OC(OC8C(CO)OC(OC9C(CO)OC(OC3C(O)C4O)C(O)C9O)C(O)C8O)C(O)C7O)C(O)C6O)C(O)C5O)NC(=O)CCOCCOCCOCCOCCNC(=O)CCC(=O)N3Cc4ccccc4C#Cc4ccccc43)C(C)C)cc2)O1` (stereo partly drawn) [Ex63, DIBAC-suc-PEG4-dLys(COT-CD)-Val-Ala-1i], the “CapB (%)” value in series [1] is reported as “% (% ≤50 CapB (%))”. On the same count and under the same terms, in the case of `CCCC1O[C@@H]2C[C@H]3[C@@H]4C[C@H](F)C5=CC(=O)C=C[C@]5(C)[C@@]4(F)[C@@H](O)C[C@]3(C)[C@]2(C(=O)CNC(=O)OCc2ccc(NC(=O)[C@H](CCCNC(N)=O)NC(=O)[C@@H](NC(=O)[C@@H](CCCCNC(=O)COC3CCCCCc4c3nnn4CC3OC4OC5C(CO)OC(OC6C(CO)OC(OC7C(CO)OC(OC8C(CO)OC(OC9C(CO)OC(OC3C(O)C4O)C(O)C9O)C(O)C8O)C(O)C7O)C(O)C6O)C(O)C5O)NC(=O)CCOCCOCCOCCOCCNC(=O)OC[C@@H]3[C@@H]4CCC#CCC[C@@H]43)C(C)C)cc2)O1` (stereo partly drawn) [Ex60, BCN-PEG4-dLys(COT-CD)-vcPAB-1h] it was “% (% ≤50 CapB (%))”.

On to `CC(C)[C@H](NC(=O)[C@@H](CCCCNC(=O)CCOCCOCCOCCOCCNC(=O)COC1CCCCCc2nnn(CC3OC4OC5C(CO)OC(OC6C(CO)OC(OC7C(CO)OC(OC8C(CO)OC(OC9C(CO)OC(OC3C(O)C4O)C(O)C9O)C(O)C8O)C(O)C7O)C(O)C6O)C(O)C5O)c21)NC(=O)CCOCCOCCOCCOCCNC(=O)OCC1C2CCC#CCCC21)C(=O)N[C@@H](C)C(=O)Nc1ccc2c(c1)[C@@]1(C)CCC[C@](C)(C(=O)NC(=O)[C@@]3(C)CCC[C@]4(C)c5cc(O)ccc5CC[C@@H]34)[C@@H]1CC2` (stereo partly drawn) [Ex51, BCN-PEG4-D-Lys(PEG4-COT-CD)-Val-Ala-1d], for which the solubility – broadly, the concentration that dissolves in the medium under given conditions – at 10 min in series [2] (Aq. Solubility (mg/mL)) came to 180 µg/mL (≈ 67.7 µM); in series [2] (Solubility) it was 330 µg/mL (≈ 124 µM). The molecule `CC(C)[C@H](NC(=O)[C@@H](CCCCNC(=O)COC1CCCCCc2c1nnn2CC1OC2OC3C(CO)OC(OC4C(CO)OC(OC5C(CO)OC(OC6C(CO)OC(OC7C(CO)OC(OC1C(O)C2O)C(O)C7O)C(O)C6O)C(O)C5O)C(O)C4O)C(O)C3O)NC(=O)CCOCCOCCOCCOCCNC(=O)OCC1C2CCC#CCCC21)C(=O)N[C@@H](C)C(=O)Nc1ccc2c(c1)[C@@]1(C)CCC[C@](C)(C(=O)NC(=O)[C@@]3(C)CCC[C@]4(C)c5cc(O)ccc5CC[C@@H]34)[C@@H]1CC2` (stereo partly drawn) [Ex54, BCN-PEG4-D-Lys(COT-CD)-Val-Ala-1d] showed a solubility at 10 min in series [2] (Aq. Solubility (mg/mL)) of 300 µg/mL (≈ 124 µM). As for `CCCC1O[C@@H]2C[C@H]3[C@@H]4C[C@H](F)C5=CC(=O)C=C[C@]5(C)[C@@]4(F)[C@@H](O)C[C@]3(C)[C@]2(C(=O)COc2ccc(NC(=O)OCc3ccc(NC(=O)[C@H](CCCNC(N)=O)NC(=O)[C@@H](NC(=O)[C@@H](CCCCNC(=O)COC4CCCCCc5c4nnn5CC4OC5OC6C(CO)OC(OC7C(CO)OC(OC8C(CO)OC(OC9C(CO)OC(OC%10C(CO)OC(OC4C(O)C5O)C(O)C%10O)C(O)C9O)C(O)C8O)C(O)C7O)C(O)C6O)NC(=O)CCOCCOCCOCCOCCNC(=O)CCC(=O)N4Cc5ccccc5C#Cc5ccccc54)C(C)C)cc3)cc2)O1` (stereo partly drawn) [Ex62, DIBAC-suc-PEG4-dLys(COT-CD)-vcPAB-1i], in series [1], the capB is given as 12.8% and the “CapB (%)” value was “% (% ≤50 CapB (%))”. As to `CC(C)[C@H](NC(=O)[C@@H](CCCCNC(=O)CCOCCOCCOCCOCCNC(=O)COC1CCCCCc2nnn(CC3OC4OC5C(CO)OC(OC6C(CO)OC(OC7C(CO)OC(OC8C(CO)OC(OC9C(CO)OC(OC3C(O)C4O)C(O)C9O)C(O)C8O)C(O)C7O)C(O)C6O)C(O)C5O)c21)NC(=O)CCOCCOCCOCCOCCNC(=O)OCC1C2CCC#CCCC21)C(=O)N[C@@H](CCCNC(N)=O)C(=O)Nc1ccc(COC(=O)NCCOc2ccc3c(c2)[C@@]2(C)CCC[C@](C)(C(=O)NC(=O)[C@@]4(C)CCC[C@]5(C)c6cc(O)ccc6CC[C@@H]45)[C@@H]2CC3)cc1` (stereo partly drawn) [Ex52, BCN-PEG4-D-Lys(PEG4-COT-CD)-vcPAB-1e], the solubility at 10 min was found to be 300 µg/mL (≈ 102 µM) in series [2] (Aq. Solubility (mg/mL)) and 290 µg/mL (≈ 98.7 µM) in series [2] (Solubility).

Consider `CC[C@H](C)[C@@H]([C@@H](CC(=O)N1CCC[C@H]1[C@H](OC)[C@@H](C)C(=O)N[C@H](C)[C@@H](O)c1ccccc1)OC)N(C)C(=O)[C@@H](NC(=O)[C@H](C(C)C)N(C)C(=O)OCc1ccc(NC(=O)[C@H](CCCNC(N)=O)NC(=O)[C@@H](NC(=O)[C@@H](CCCCNC(=O)CCC(=O)N2Cc3ccccc3C#Cc3ccccc32)NC(=O)CCCCCN2C(=O)CC(N3CCN(CC4OC5OC6C(CO)OC(OC7C(CO)OC(OC8C(CO)OC(OC9C(CO)OC(OC%10C(CO)OC(OC4C(O)C5O)C(O)C%10O)C(O)C9O)C(O)C8O)C(O)C7O)C(O)C6O)CC3)C2=O)C(C)C)cc1)C(C)C` (stereo partly drawn) [Ex38], for which the solubility at 10 min in series [2] (aqueous, read-out: Aq. Solubility) amounted to 500 µg/mL (≈ 180 µM); in series [2] (read-out: Solubility) it was 250 µg/mL (≈ 90.2 µM). In the case of `CC(C)[C@H](NC(=O)[C@@H](CCCCNC(=O)COC1CCCCCc2c1nnn2CC1OC2OC3C(CO)OC(OC4C(CO)OC(OC5C(CO)OC(OC6C(CO)OC(OC7C(CO)OC(OC8C(CO)OC(OC9C(CO)OC(OC1C(O)C2O)C(O)C9O)C(O)C8O)C(O)C7O)C(O)C6O)C(O)C5O)C(O)C4O)C(O)C3O)NC(=O)CCOCCOCCOCCOCCNC(=O)CCC(=O)N1Cc2ccccc2C#Cc2ccccc21)C(=O)N[C@@H](C)C(=O)Nc1ccc2c(c1)[C@@]1(C)CCC[C@](C)(C(=O)NC(=O)[C@@]3(C)CCC[C@]4(C)c5cc(O)ccc5CC[C@@H]34)[C@@H]1CC2` (stereo partly drawn) [Ex57, DIBAC-suc-PEG4-D-Lys(COT-CD)-vcPAB-1d], the capB in series [1] worked out at 8.3%.
